One series concerns the target T1, aldehyde oxidase (AOX) (Cavia porcellus, UniProt H9TB17).
T1 sequence (H9TB17 1-1332): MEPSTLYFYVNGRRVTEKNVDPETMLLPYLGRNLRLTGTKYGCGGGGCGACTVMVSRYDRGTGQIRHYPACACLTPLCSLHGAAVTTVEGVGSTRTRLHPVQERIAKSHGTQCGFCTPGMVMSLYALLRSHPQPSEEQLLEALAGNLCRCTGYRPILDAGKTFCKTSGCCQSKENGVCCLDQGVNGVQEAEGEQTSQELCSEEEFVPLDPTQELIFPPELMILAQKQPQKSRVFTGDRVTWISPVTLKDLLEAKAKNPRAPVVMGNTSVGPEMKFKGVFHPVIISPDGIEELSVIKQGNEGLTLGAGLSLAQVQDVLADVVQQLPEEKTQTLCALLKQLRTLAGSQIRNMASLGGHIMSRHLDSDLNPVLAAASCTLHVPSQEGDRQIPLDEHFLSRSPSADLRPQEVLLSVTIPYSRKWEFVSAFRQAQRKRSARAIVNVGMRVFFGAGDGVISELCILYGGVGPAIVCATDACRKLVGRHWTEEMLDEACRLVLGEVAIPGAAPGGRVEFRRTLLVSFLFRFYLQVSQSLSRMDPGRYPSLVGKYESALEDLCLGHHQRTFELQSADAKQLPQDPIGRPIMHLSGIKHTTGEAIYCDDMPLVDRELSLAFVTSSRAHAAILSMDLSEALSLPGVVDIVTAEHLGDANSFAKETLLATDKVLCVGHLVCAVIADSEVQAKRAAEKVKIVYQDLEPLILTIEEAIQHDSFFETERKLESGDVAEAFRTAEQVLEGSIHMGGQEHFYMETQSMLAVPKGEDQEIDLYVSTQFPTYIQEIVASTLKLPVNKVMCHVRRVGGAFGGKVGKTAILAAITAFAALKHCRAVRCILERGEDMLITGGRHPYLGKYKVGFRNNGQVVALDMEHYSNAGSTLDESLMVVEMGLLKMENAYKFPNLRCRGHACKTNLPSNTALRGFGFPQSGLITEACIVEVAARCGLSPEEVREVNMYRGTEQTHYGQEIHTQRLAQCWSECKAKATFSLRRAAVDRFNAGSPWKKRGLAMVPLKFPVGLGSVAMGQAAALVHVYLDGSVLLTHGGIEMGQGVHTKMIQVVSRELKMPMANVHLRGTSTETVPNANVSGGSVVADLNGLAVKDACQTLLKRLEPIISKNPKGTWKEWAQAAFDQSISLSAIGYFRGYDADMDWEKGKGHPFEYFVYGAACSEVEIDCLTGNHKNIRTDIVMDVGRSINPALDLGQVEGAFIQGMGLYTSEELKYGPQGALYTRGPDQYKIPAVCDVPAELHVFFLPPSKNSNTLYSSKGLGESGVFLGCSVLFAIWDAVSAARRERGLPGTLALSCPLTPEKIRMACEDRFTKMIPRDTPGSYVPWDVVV
The settings on record: guinea pig liver cytosol, mean ± SEM; estimate, saturation incomplete.

For series [1] the following is noted: cited from earlier work.
The target of the next series is T2, AOX1 (Homo sapiens, UniProt Q06278).
T2 sequence (Q06278 1-1338): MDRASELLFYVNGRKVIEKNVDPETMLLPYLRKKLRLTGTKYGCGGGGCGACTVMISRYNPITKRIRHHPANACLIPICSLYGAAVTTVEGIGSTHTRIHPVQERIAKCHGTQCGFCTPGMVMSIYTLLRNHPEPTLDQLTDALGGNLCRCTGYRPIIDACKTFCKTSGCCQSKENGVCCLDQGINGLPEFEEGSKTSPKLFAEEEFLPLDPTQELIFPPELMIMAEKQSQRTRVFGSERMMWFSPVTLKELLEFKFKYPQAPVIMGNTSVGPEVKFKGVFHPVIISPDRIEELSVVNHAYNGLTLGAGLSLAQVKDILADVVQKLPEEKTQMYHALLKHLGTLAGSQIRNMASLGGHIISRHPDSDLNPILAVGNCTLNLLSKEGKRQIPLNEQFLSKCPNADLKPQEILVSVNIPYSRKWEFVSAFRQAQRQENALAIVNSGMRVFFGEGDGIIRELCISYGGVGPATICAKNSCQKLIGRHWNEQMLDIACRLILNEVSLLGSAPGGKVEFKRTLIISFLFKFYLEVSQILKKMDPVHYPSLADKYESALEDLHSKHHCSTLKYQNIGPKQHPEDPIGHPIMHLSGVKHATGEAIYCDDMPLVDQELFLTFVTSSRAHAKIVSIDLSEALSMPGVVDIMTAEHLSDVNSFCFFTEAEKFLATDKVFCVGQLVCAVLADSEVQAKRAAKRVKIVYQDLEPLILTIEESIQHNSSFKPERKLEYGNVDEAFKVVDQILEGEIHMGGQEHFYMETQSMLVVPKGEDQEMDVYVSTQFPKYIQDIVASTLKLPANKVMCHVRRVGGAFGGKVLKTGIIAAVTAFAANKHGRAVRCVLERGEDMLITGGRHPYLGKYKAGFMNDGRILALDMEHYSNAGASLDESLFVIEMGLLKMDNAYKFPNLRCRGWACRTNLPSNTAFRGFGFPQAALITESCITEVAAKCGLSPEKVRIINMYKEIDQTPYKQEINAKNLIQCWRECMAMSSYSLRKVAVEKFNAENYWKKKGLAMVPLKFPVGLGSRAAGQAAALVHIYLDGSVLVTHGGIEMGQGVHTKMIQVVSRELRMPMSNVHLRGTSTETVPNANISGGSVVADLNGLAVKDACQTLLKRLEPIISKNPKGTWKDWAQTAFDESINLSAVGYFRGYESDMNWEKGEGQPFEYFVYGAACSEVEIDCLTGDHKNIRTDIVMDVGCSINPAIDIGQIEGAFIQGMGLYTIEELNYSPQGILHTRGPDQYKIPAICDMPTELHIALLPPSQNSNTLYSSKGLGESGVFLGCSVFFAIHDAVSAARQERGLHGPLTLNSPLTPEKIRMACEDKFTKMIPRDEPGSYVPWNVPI
Particulars: human liver cytosol.

We go through one compound from paper PMC4574636 (Biochemical pharmacology, 2015).

For orientation: Vmax means the top rate of the reaction or transport when substrate is in excess.

On to `CN(Cc1cnc2nc(N)nc(N)c2n1)c1ccc(C(=O)N[C@@H](CCC(=O)O)C(=O)O)cc1` [Methotrexate, 4-amino-N^1^0-methylpteroglutamic acid], for which the Vmax at aldehyde oxidase (AOX) is listed as 70 ± 10 pmol/min/mg. Moreover, in series [1] (conventional dose levels of methotrexate in primates), the 7-hydroxymethotrexate in vivo entry is given as “not detected”. Further, the “Parent compound excreted as 7-hydroxymethotrexate” value in series [1] (high dose (> 50 mg methotrexate/kg) therapy regimes) is given as not above 33%. The “kcat (Vmax/[AOX1])” value at AOX1 (calculated from Vmax and AOX1 level (figure 1A)) is 0.04 s⁻¹. At AOX1 (from specific activity and Km), the “In vitro CLint AOX1” value is 0.9 min^− 1mM^−1.
